Data on one molecule can be found in paper PMC8378823, “X-ray free-electron laser studies reveal correlated motion during isopenicillin N synthase catalysis” (Science Advances, 2021).

The target in this assay is T1, isopenicillin N synthase (IPNS) (Aspergillus nidulans, UniProt P05326).
T1 construct: gene ipnA; recombinant wild type (pJB703) from E. coli NM554; S55C form from pCOLD I, N-terminal His6 tag cut with 3C protease, 37,768 Da
T1 sequence (P05326 1-331): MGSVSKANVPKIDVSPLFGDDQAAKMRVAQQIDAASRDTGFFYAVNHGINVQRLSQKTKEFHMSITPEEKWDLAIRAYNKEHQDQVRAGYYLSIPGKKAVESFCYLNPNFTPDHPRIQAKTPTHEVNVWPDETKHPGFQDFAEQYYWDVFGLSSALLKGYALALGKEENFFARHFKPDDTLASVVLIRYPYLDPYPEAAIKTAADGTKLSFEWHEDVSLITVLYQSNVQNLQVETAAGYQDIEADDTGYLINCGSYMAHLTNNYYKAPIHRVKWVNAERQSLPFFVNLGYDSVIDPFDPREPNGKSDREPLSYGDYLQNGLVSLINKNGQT
The assay is described as follows: SFX and cryo synchrotron crystal structure. As to conditions: Fe complex; formed in crystallo from ACV by about 30 min O2 exposure; SFX 1.60 Å at room temperature. The assay is classed as binding.

For the molecule `CC1(C)S[C@@H]2[C@H](NC(=O)CCC[C@H](N)C(=O)O)C(=O)N2[C@H]1C(=O)O` [isopenicillin N], the “SFX and cryo synchrotron crystal structure” value is recorded as “Composite SFX 2mFo-DFc omit map for IPNS:Fe:IPN obtained by ~30-min O2 exposure”.
